The target in series [1] is T1, MC1-R (B-16 mouse melanoma cells) (Mus musculus (Mouse), UniProt Q01727). Nature of the series: Competitive inhibition binding assay using [I125]-NDP-α-MSH, MC1-R. As to the method: (§1) A competitive inhibition binding assay is performed using membrane homogenates prepared from HEK-293 cells that express recombinant hMC4-R, hMC3-R, or hMC5-R, and from B-16 mouse melanoma cells (containing endogenous MC1-R). In some instances, HEK-293 cells that express recombinant hMC1-R were employed. In the examples that follow, all MC3-R, MC4-R and MC5-R values are for human recombinant receptors. MC1-R values are for B-16 mouse melanoma cells, unless the heading is “hMC1-R”, in which case the value is for human recombinant MC1-R. Assays were performed in 96 well GF/B Millipore multiscreen filtration plates (MAFB NOB10) pre-coated with 0.5% bovine serum albumin (Fraction V). […] Filters were dried and counted in a gamma counter for bound radioactivity. […] Maximal specific binding (100%) was defined as the difference in radioactivity (cpm) bound to cell membranes in the absence and presence of 1 μM NDP-α-MSH. […] Ki values for test peptides of the present invention were determined using Graph-Pad Prism® curve-fitting software.

Series [2] has as its target T2, hMC4-R (Homo sapiens (Human), UniProt P32245). Nature of the series: Assay for agonist activity: cAMP accumulation in HEK-293 cells that express hMC4-R. As to conditions: for functional status at MC4-R (agonist / partial agonist): agonist = intrinsic activity 70% or higher, partial agonist 10-70%. A general note: cAMP levels reflect the balance of adenylyl cyclase and phosphodiesterase activity.
Description: By “intrinsic activity” is meant the maximal functional activity achievable by a compound in a specified melanocortin receptor expressing cell system, such as the maximal stimulation of adenylyl cyclase.
Accumulation of intracellular cAMP was examined as a measure of the ability of the peptides of the present invention to elicit a functional response in HEK-293 cells that express MC4-R. Confluent HEK-293 cells that express recombinant hMC4-R were detached from culture plates by incubation in enzyme-free cell dissociation buffer. Dispersed cells were suspended in Earle's Balanced Salt Solution containing 10 mM HEPES (pH 7.5), 1 mM MgCl2, 1 mM glutamine, 0.5% albumin and 0.3 mM 3-isobutyl-1-methyl-xanthine (IBMX), a phosphodiesterase inhibitor. […] Cells were exposed for 15 minutes at 37° C. to peptides of the present invention dissolved in DMSO (final DMSO concentration of 1%) at a concentration range of 0.05-5000 nM in a total assay volume of 200 μL. […] Data analysis was performed by nonlinear regression analysis with Graph-Pad Prism® software. The maximum efficacies of the test peptides of the present invention were compared to that achieved by the reference melanocortin agonist NDP-αMSH.

In series [3] the target is T3, hMC3-R (Homo sapiens (Human), UniProt P41968). In words: Competitive inhibition binding assay using [I125]-NDP-α-MSH, MC3-R. The protocol: (§2) A competitive inhibition binding assay is performed using membrane homogenates prepared from HEK-293 cells that express recombinant hMC4-R, hMC3-R, or hMC5-R, and from B-16 mouse melanoma cells (containing endogenous MC1-R). In some instances, HEK-293 cells that express recombinant hMC1-R were employed. In the examples that follow, all MC3-R, MC4-R and MC5-R values are for human recombinant receptors. […] Membrane homogenates were incubated with 0.2 nM (for hMC4-R) 0.4 nM (for MC3-R and MC5-R) or 0.1 nM (for mouse B16 MC1-R or hMC1-R) [I^125]-NDP-α-MSH (Perkin Elmer) and increasing concentrations of test peptides of the present invention in buffer containing 25 mM HEPES buffer (pH 7.5) with 100 mM NaCl, 2 mM CaCl2, 2 mM MgCl2, 0.3 mM 1,10-phenanthroline, and 0.2% bovine serum albumin. After incubation for 60 minutes at 37° C., the assay mixture was filtered and the membranes washed three times with ice-cold buffer. Filters were dried and counted in a gamma counter for bound radioactivity. […] Maximal specific binding (100%) was defined as the difference in radioactivity (cpm) bound to cell membranes in the absence and presence of 1 μM NDP-α-MSH. […] Each assay was conducted in triplicate and the actual mean values are described, with results less than 0% reported as 0%. Ki values for test peptides of the present invention were determined using Graph-Pad Prism® curve-fitting software.

In series [4] the test system is Male Sprague-Dawley rats. In words: Induction of penile erection in male rats. The format is in vivo, rat. The following applies: for induction of penile erection: male Sprague-Dawley rats, 60 minute observation, No. 154 as trifluoracetic acid salt, No. 155 as acetate salt. An excerpt:
Each dose group contained six or seven animals, with video observation for sixty minutes following administration.

The target of series [5] is T1, MC1-R (B-16 mouse melanoma cells). In words: Competitive binding using Eu-labeled NDP-α-MSH, MC1-R. The protocol: A competitive inhibition binding assay is performed using membrane homogenates prepared from HEK-293 cells that express recombinant hMC4-R, hMC3-R, or hMC5-R, and from B-16 mouse melanoma cells (containing endogenous MC1-R). In some instances, HEK-293 cells that express recombinant hMC1-R were employed. In the examples that follow, all MC3-R, MC4-R and MC5-R values are for human recombinant receptors. MC1-R values are for B-16 mouse melanoma cells, unless the heading is “hMC1-R”, in which case the value is for human recombinant MC1-R. Assays were performed in 96 well GF/B Millipore multiscreen filtration plates (MAFB NOB10) pre-coated with 0.5% bovine serum albumin (Fraction V). Membrane homogenates were incubated with 0.2 nM (for hMC4-R) 0.4 nM (for MC3-R and MC5-R) or 0.1 nM (for mouse B16 MC1-R or hMC1-R) [I^125]-NDP-α-MSH (Perkin Elmer) and increasing concentrations of test peptides of the present invention in buffer containing 25 mM HEPES buffer (pH 7.5) with 100 mM NaCl, 2 mM CaCl2, 2 mM MgCl2, 0.3 mM 1,10-phenanthroline, and 0.2% bovine serum albumin. After incubation for 60 minutes at 37° C., the assay mixture was filtered and the membranes washed three times with ice-cold buffer. Filters were dried and counted in a gamma counter for bound radioactivity. […] Maximal specific binding (100%) was defined as the difference in radioactivity (cpm) bound to cell membranes in the absence and presence of 1 μM NDP-α-MSH. […] Ki values for test peptides of the present invention were determined using Graph-Pad Prism® curve-fitting software.
Alternatively, a competitive inhibition binding assay was performed employing Eu-NDP-α-MSH (PerkinElmer Life Sciences catalog No. AD0225) with determination by time-resolved fluorometry (TRF) of the lanthanide chelate. […] The plates were incubated on a shaker for 15 minutes and read at 340 nm excitation and 615 nm emission wavelengths. […] Ki values were determined by curve-fitting with Graph-Pad Prism® software using a one-site fixed-slope competition binding model.

The target in series [6] is T3, hMC3-R. Nature of the series: Competitive binding using Eu-labeled NDP-α-MSH, MC3-R. The protocol: as §1
Alternatively, a competitive inhibition binding assay was performed employing Eu-NDP-α-MSH (PerkinElmer Life Sciences catalog No. AD0225) with determination by time-resolved fluorometry (TRF) of the lanthanide chelate. […] The plates were incubated on a shaker for 15 minutes and read at 340 nm excitation and 615 nm emission wavelengths. […]

Series [7] concerns Male Sprague-Dawley rats. Nature of the series: Rat feeding studies: food intake and body weight change. The series is classed as in vivo. As to conditions: for decrease in food consumption compared to control: rats, 0-2, 0-4 and 0-20 hour periods. As to the method: Change in food intake and body weight was evaluated for selected peptides administered by intravenous (IV) or subcutaneous injection routes. Male Sprague-Dawley rats were obtained from Hilltop Lab Animals, Inc. (Scottsdale, Pa.) or other vendors. Animals were individually housed in conventional polystyrene hanging cages and maintained on a controlled 12 hour on/off light cycle. Water and pelleted food was provided ad libitum. The rats were dosed IV with vehicle or selected peptides (0.3 to 1.0 mg/kg), or dosed subcutaneously with vehicle or selected peptides (doses up to 30 mg/kg). […] The changes in body weight and food intake for the 48 hour and 72 hour periods after dosing can also be measured to determine reversal of changes in body weight and food intake effects back to baseline levels.

Series [8] can be described thus: Pharmacokinetic studies, rat model, subcutaneous injection. As to conditions: in vivo, sc, formulation as in Section 9.7, read-out: circulation half life (converted).
The target of series [9] is T4, hMC1-R (Homo sapiens (Human), UniProt Q01726). Nature of the series: Competitive inhibition binding assay, human recombinant MC1-R. The protocol: as §2
For series [10], the target named is T4, hMC1-R. Nature of the series: Functional assay (EC50 and intrinsic activity) at hMC1-R. The format is cell-based.
The target of series [11] is T2, hMC4-R. Nature of the series: Competitive inhibition binding assay using [I125]-NDP-α-MSH, hMC4-R membranes. The gist of the method:
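Membranes from HEK-293 cells expressing recombinant hMC1-R or hMC4-R incubated with 0.1 nM (MC1-R) or 0.2 nM (MC4-R) [I125]-NDP-α-MSH and increasing peptide concentrations in HEPES pH 7.5, 60 min at 37 °C; filtered, gamma counted.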

The record followed here is patent publication US8846601B2, “Melanocortin receptor-specific peptides” (Palatin Technologies, Inc., priority 2009, dated 2014).

Read-outs that look alike come from different tables or passages of the source. Peptide text beside a SMILES is read from it.

T2 sequence (P32245 whole entry): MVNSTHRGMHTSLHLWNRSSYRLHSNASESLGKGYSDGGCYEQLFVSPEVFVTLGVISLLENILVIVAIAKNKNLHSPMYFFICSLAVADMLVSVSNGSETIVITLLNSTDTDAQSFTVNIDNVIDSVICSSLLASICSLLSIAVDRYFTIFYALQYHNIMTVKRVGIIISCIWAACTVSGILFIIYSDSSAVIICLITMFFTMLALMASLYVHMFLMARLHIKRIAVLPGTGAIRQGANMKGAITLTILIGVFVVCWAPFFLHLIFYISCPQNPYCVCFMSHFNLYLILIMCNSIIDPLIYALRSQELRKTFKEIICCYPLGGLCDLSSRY
T1 sequence (Q01727 whole entry): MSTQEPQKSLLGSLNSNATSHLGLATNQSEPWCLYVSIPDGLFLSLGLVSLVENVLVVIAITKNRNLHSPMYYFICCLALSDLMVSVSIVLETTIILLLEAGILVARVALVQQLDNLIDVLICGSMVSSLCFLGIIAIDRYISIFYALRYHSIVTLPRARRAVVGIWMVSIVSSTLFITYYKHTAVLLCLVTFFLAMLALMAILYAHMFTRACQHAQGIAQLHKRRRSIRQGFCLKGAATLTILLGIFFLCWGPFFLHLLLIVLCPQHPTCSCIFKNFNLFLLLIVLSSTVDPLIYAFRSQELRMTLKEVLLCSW
T4 sequence (Q01726 whole entry): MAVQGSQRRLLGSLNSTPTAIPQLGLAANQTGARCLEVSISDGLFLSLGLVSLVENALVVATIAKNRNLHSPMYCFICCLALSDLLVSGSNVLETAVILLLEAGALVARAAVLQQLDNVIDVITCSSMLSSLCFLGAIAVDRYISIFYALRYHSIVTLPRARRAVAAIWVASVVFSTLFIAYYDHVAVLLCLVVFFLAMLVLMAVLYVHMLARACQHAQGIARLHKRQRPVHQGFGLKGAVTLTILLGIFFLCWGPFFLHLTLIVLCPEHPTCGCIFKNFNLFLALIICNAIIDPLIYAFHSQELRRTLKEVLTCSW
T3 sequence (P41968 whole entry): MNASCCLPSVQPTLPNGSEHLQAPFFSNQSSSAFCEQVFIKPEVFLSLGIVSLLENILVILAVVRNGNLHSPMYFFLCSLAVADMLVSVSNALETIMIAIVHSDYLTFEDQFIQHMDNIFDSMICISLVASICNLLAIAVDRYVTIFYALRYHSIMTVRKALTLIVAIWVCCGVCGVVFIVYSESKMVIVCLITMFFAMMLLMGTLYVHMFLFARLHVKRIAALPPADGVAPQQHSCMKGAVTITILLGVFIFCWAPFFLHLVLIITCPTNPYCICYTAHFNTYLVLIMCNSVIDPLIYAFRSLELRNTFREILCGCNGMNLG

`CC(=O)N[C@@H](CCCNC(=N)N)C(=O)N[C@H]1CC(=O)NCCCC[C@@H](C(N)=O)NC(=O)[C@H](Cc2c[nH]c3ccccc23)NC(=O)[C@H](CCCNC(=N)N)NC(=O)[C@@H](Cc2ccccc2)NC(=O)[C@H](CCC(N)=O)NC1=O` [Peptide No. 32, Ac-Arg-cyclo(Asp-Gln- D-Phe-Arg-Trp-Lys)- NH2]: the Ki (as a rule, a dissociation constant, usually derived from enzyme kinetics or from competition with a known ligand) in series [1] was determined as 133 nM; at hMC3-R [3], 340 nM; in series [5] it was 673 nM. Further, the “functional status at MC4-R (agonist / partial agonist)” value at hMC4-R [2] was “agonist”. For the same compound, in the series with Male Sprague-Dawley rats [4] (rats, subcutaneous, doses of 1, 3 or 10 mg/kg), the observed spontaneous erections entry is “increase in observed spontaneous erections”.
`CC(=O)N[C@@H](CCCNC(=N)N)C(=O)N[C@H]1CC(=O)NCCCC[C@@H](C(N)=O)NC(=O)[C@H](Cc2c[nH]c3ccccc23)NC(=O)[C@H](CCCNC(=N)N)NC(=O)[C@@H](Cc2ccccc2)NC(=O)[C@H](Cc2c[nH]cn2)NC1=O` [Peptide No. 1, Ac-Arg-cyclo(Asp-His- D-Phe-Arg-Trp-Lys)- NH2]: the Ki was 3 nM in series [1], 103 nM on hMC3-R [6] and 4 nM in [5]. The “functional status at MC4-R (agonist / partial agonist)” value at hMC4-R [2] is recorded as “agonist”. Also, in the series on Male Sprague-Dawley rats [4] (rats, IV, doses of 0.3 or 1 mg/kg), the “observed spontaneous erections compared to vehicle” value was “statistically significant increase”. Moreover, the “food intake and rate of change in body weight” value in the series with Male Sprague-Dawley rats [7] (rat feeding studies, bremelanotide as positive control) was “reduce food intake and decrease the rate of change in body weight”. The “decrease in food consumption compared to control” value with Male Sprague-Dawley rats [7] (0.3 mg/kg) and with Male Sprague-Dawley rats [7] (1 mg/kg) was “statistically significant” each time.
`CC(=O)N[C@@H](CCCNC(=N)N)C(=O)N[C@H]1CCCNC(=O)CC[C@@H](C(N)=O)NC(=O)[C@H](Cc2c[nH]c3ccccc23)NC(=O)[C@H](CCCNC(=N)N)NC(=O)[C@@H](Cc2ccccc2)NC(=O)[C@H](CC(N)=O)NC1=O` [compound 154, Ac-Arg-cyclo(Orn-Asn- D-Phe-Arg-Trp-Glu)- NH2]: the half-life – broadly, the time in which the quantity being followed falls by half – in series [8] is approximately 42 min. Moreover, the Ki on hMC1-R [9] amounted to 688 nM. Moreover, the “induction of penile erection” value in the series on Male Sprague-Dawley rats [4] (subcutaneous) is listed as “robustly induce a penile erection”. Besides, the EC50 (usually the concentration that produces a half-maximal response) at hMC1-R [10] is 25 nM.
On to `CC(=O)N[C@@H](CCCNC(=N)N)C(=O)N[C@H]1CCCCNC(=O)C[C@@H](C(N)=O)NC(=O)[C@H](Cc2c[nH]c3ccccc23)NC(=O)[C@H](CCCNC(=N)N)NC(=O)[C@@H](Cc2ccccc2)NC(=O)[C@H](CC(N)=O)NC1=O` [compound 155, Ac-Arg-cyclo(Lys-Asn- D-Phe-Arg-Trp-Asp)- NH2] (HELM PEPTIDE1{[ac].R.K.N.[dF].R.W.D.[am]}$PEPTIDE1,PEPTIDE1,3:R3-8:R3$$$V2.0), for which, in series [8], the half-life was approximately 42 min. Also, the inhibition constant Ki came out at 240 nM on hMC1-R [9]; 5 nM on hMC4-R [11] (averaged, [I125]-NDP-α-MSH (values not marked *), read-out: MC4-R Ki); 5 nM at hMC4-R [11] (read-out: hMC4-R (Ki)). In addition, the EC50 at hMC4-R [2] came out at 0.189 nM; on hMC1-R [10], 14 nM. The “induction of penile erection” value with Male Sprague-Dawley rats [4] (subcutaneous) was “robustly induce a penile erection”.
